Legend:
[1] = system: Zucker fatty (fa/fa) rats; experiment: Urinary total protein (Bio-Rad dye-binding assay, 24 h urine) in 9 month Zucker rat study; assay type: in vivo; conditions: Zucker fatty rats; for URINARY PROTEIN CONCENTRATION: mean ± SEM
Description: A second study was performed in Zucker rats over a period of 9 months to investigate the longitudinal effects of the drug on systolic blood pressure and various indices of renal function, two of which are exemplified here. […] A third group of Zucker fatty rats and a further group of lean rats were given diet alone throughout the period of study. After dosing with the test compound, at monthly intervals measurements were made of systolic blood pressure, urinary total protein and urinary N-acetyl β-D-glucosaminidase (NAG) activity. Twenty-four hour urine collections, made in metabolism cages, were aliquoted and frozen at −70° C. until required for assay. Urinary protein concentration was measured using the Bio-Rad protein assay as modified for use in a 96-well microtitre plate. The assay is a dye-binding assay based on the differential colour change of a dye in response to various concentrations of protein (Bradford, Anal. Biochem., 72, 248, 1976). After a period of incubation with Dye Reagent, diluted urine samples are read at an optical density of 595 nm using a Molecular Devices multiplate reader.

[2] = system: Zucker fatty (fa/fa) rats; experiment: Urinary N-acetyl β-D-glucosaminidase (NAG) activity in 9 month Zucker rat study; assay type: in vivo; conditions: for URINARY N-ACETYL-β-D-GLUCOSAMINIDASE ACTIVITY: mean ± SEM
Description: A second study was performed in Zucker rats over a period of 9 months to investigate the longitudinal effects of the drug on systolic blood pressure and various indices of renal function, two of which are exemplified here. In one arm of the study, the drug was given in the diet (50 μmole/kg of diet) from aged 6-7 weeks in Zucker fatty (fa/fa) rats, whilst in a second arm of the study, drug treatment as above was delayed until proteinuria had become established after 4 months, indicative of structural damage already present in the kidneys. A third group of Zucker fatty rats and a further group of lean rats were given diet alone throughout the period of study.
After dosing with the test compound, at monthly intervals measurements were made of systolic blood pressure, urinary total protein and urinary N-acetyl β-D-glucosaminidase (NAG) activity.
Twenty-four hour urine collections, made in metabolism cages, were aliquoted and frozen at −70° C. until required for assay.
NAG activity was assayed using a reagent kit on a Hitachi 717 analyser (both suppied by Boehringer Mannheim UK, Lewes). Enzyme activity was measured by monitoring the rate of chlorophenol (570 nm) released from the substrate chlorophenol red-β-D-glucosaminide.
In the tables below, results are given as mean values for the group ±the standard error of the mean. Results have been analysed by one way ANOVA and significant differences from the Zucker fatty rat control group have been indicated by an asterisk.

## CN(CCOc1ccc(CC2SC(=O)NC2=O)cc1)c1ccccn1 (centres unmarked) [Test Compound, 5-[4-[2-(N-methyl-N-(2-pyridyl)amino)ethoxy]benzyl]thiazolidine-2,4-dione]
[1]; 50 μmol/kg of diet from age 6-7 weeks (prior to renal complications), treatment duration 8 months
  URINARY PROTEIN CONCENTRATION: 2664 ± 370 µg/h
[1]; 50 μmol/kg of diet from age 6-7 weeks (prior to renal complications), treatment duration 9 months
  URINARY PROTEIN CONCENTRATION: 3152 ± 515 µg/h
[1]; 50 μmol/kg of diet started once renal complications established (after 4 months), treatment duration 0 months
  URINARY PROTEIN CONCENTRATION: 3520 ± 905 µg/h
[1]; 50 μmol/kg of diet started once renal complications established (after 4 months), treatment duration 1 month
  URINARY PROTEIN CONCENTRATION: 3690 ± 386 µg/h
[1]; 50 μmol/kg of diet started once renal complications established (after 4 months), treatment duration 2 months
  URINARY PROTEIN CONCENTRATION: 5330 ± 967 µg/h
[1]; 50 μmol/kg of diet started once renal complications established (after 4 months), treatment duration 3 months
  URINARY PROTEIN CONCENTRATION: 6230 ± 835 µg/h
[1]; 50 μmol/kg of diet started once renal complications established (after 4 months), treatment duration 4 months
  URINARY PROTEIN CONCENTRATION: 5380 ± 708 µg/h
[1]; 50 μmol/kg of diet started once renal complications established (after 4 months), treatment duration 5 months
  URINARY PROTEIN CONCENTRATION: 7680 ± 825 µg/h
[1]; 50 μmol/kg of diet started once renal complications established (after 4 months), treatment duration −1 month (before start of drug)
  URINARY PROTEIN CONCENTRATION: 958 ± 194 µg/h
[1]; 50 μmol/kg of diet started once renal complications established (after 4 months), treatment duration −2 months (before start of drug)
  URINARY PROTEIN CONCENTRATION: 457 ± 21 µg/h
[1]; 50 μmol/kg of diet started once renal complications established (after 4 months), treatment duration −3 months (before start of drug)
  URINARY PROTEIN CONCENTRATION: 347 ± 32 µg/h
[1]; 50 μmol/kg of diet started once renal complications established (after 4 months), treatment duration −4 months (before start of drug)
  URINARY PROTEIN CONCENTRATION: 220 ± 13 µg/h
[1]; drug treatment commenced after proteinuria had become established
  rate of increase in the urinary protein concentration: marked reduction
[2]; Zucker fatty (fa/fa) rats treated from age 6-7 weeks for 9 months via the diet
  elevation of urinary NAG activity: markedly reduced
[2]; Zucker fatty rats, 50 μmol/kg of diet from age 6-7 weeks (prior to renal complications), treatment duration 0 months
  URINARY N-ACETYL-β-D-GLUCOSAMINIDASE ACTIVITY: 5.7 ± 0.4 mU/hour
[2]; Zucker fatty rats, 50 μmol/kg of diet from age 6-7 weeks (prior to renal complications), treatment duration 1 month
  URINARY N-ACETYL-β-D-GLUCOSAMINIDASE ACTIVITY: 7.5 ± 0.7 mU/hour
[2]; Zucker fatty rats, 50 μmol/kg of diet from age 6-7 weeks (prior to renal complications), treatment duration 2 months
  URINARY N-ACETYL-β-D-GLUCOSAMINIDASE ACTIVITY: 3.8 ± 1.1 mU/hour
[2]; Zucker fatty rats, 50 μmol/kg of diet from age 6-7 weeks (prior to renal complications), treatment duration 3 months
  URINARY N-ACETYL-β-D-GLUCOSAMINIDASE ACTIVITY: 4.5 ± 0.9 mU/hour
[2]; Zucker fatty rats, 50 μmol/kg of diet from age 6-7 weeks (prior to renal complications), treatment duration 4 months
  URINARY N-ACETYL-β-D-GLUCOSAMINIDASE ACTIVITY: 5.1 ± 1.2 mU/hour
[2]; Zucker fatty rats, 50 μmol/kg of diet from age 6-7 weeks (prior to renal complications), treatment duration 5 months
  URINARY N-ACETYL-β-D-GLUCOSAMINIDASE ACTIVITY: 6.5 ± 0.7 mU/hour
[2]; Zucker fatty rats, 50 μmol/kg of diet from age 6-7 weeks (prior to renal complications), treatment duration 6 months
  URINARY N-ACETYL-β-D-GLUCOSAMINIDASE ACTIVITY: 6.5 ± 1.1 mU/hour
[2]; Zucker fatty rats, 50 μmol/kg of diet from age 6-7 weeks (prior to renal complications), treatment duration 7 months
  URINARY N-ACETYL-β-D-GLUCOSAMINIDASE ACTIVITY: 8.9 ± 0.8 mU/hour
[2]; Zucker fatty rats, 50 μmol/kg of diet from age 6-7 weeks (prior to renal complications), treatment duration 8 months
  URINARY N-ACETYL-β-D-GLUCOSAMINIDASE ACTIVITY: 6.2 ± 1.2 mU/hour
[2]; Zucker fatty rats, 50 μmol/kg of diet from age 6-7 weeks (prior to renal complications), treatment duration 9 months
  URINARY N-ACETYL-β-D-GLUCOSAMINIDASE ACTIVITY: 9.1 ± 1.2 mU/hour
[2]; Zucker fatty rats, 50 μmol/kg of diet started once renal complications established (after 4 months), treatment duration 0 months
  URINARY N-ACETYL-β-D-GLUCOSAMINIDASE ACTIVITY: 7.6 ± 0.7 mU/hour
[2]; Zucker fatty rats, 50 μmol/kg of diet started once renal complications established (after 4 months), treatment duration 1 month
  URINARY N-ACETYL-β-D-GLUCOSAMINIDASE ACTIVITY: 7.6 ± 0.7 mU/hour
[2]; Zucker fatty rats, 50 μmol/kg of diet started once renal complications established (after 4 months), treatment duration 2 months
  URINARY N-ACETYL-β-D-GLUCOSAMINIDASE ACTIVITY: 5.7 ± 0.9 mU/hour
[2]; Zucker fatty rats, 50 μmol/kg of diet started once renal complications established (after 4 months), treatment duration 3 months
  URINARY N-ACETYL-β-D-GLUCOSAMINIDASE ACTIVITY: 7.4 ± 0.9 mU/hour
[2]; Zucker fatty rats, 50 μmol/kg of diet started once renal complications established (after 4 months), treatment duration 4 months
  URINARY N-ACETYL-β-D-GLUCOSAMINIDASE ACTIVITY: 5.4 ± 1.0 mU/hour
[2]; Zucker fatty rats, 50 μmol/kg of diet started once renal complications established (after 4 months), treatment duration 5 months
  URINARY N-ACETYL-β-D-GLUCOSAMINIDASE ACTIVITY: 8.0 ± 1.1 mU/hour
[2]; Zucker fatty rats, 50 μmol/kg of diet started once renal complications established (after 4 months), treatment duration −1 month (before start of drug)
  URINARY N-ACETYL-β-D-GLUCOSAMINIDASE ACTIVITY: 7.8 ± 0.6 mU/hour
[2]; Zucker fatty rats, 50 μmol/kg of diet started once renal complications established (after 4 months), treatment duration −2 months (before start of drug)
  URINARY N-ACETYL-β-D-GLUCOSAMINIDASE ACTIVITY: 9.5 ± 1.1 mU/hour
[2]; Zucker fatty rats, 50 μmol/kg of diet started once renal complications established (after 4 months), treatment duration −3 months (before start of drug)
  URINARY N-ACETYL-β-D-GLUCOSAMINIDASE ACTIVITY: 8.3 ± 0.5 mU/hour
[2]; Zucker fatty rats, 50 μmol/kg of diet started once renal complications established (after 4 months), treatment duration −4 months (before start of drug)
  URINARY N-ACETYL-β-D-GLUCOSAMINIDASE ACTIVITY: 5.4 ± 0.2 mU/hour
[2]; Zucker fatty rats, drug treatment commenced after proteinuria had become established
  urinary NAG activity: prevented from rising further

Reference: patent US20020115699A1, “Method for treating renal disease” (SmithKline Beecham p.l.c., priority 1994, published 2002)
